Literature values as cited in patent publication US20060004050A1, “Compositions and methods for the prevention or treatment of pain and other nervous system disorders” (priority 2004, published 2006).

Columns and labels:
[1] = tested on: tissue membrane
[2] = tested on: calcium current of snail neurons
[3] = tested on: spinal nerve root action potentials; conditions: cats
[4] = tested on: spinal cord and descending neural pathways; conditions: rats
[5] = in vivo
[6] = in vivo; remark: listed apart in the source
[7] = rat
[8] = tested on: beta-adrenergic; conditions: L-form versus D-enantiomer

For `Cc1ccc(C(=O)C(C)CN2CCCCC2)cc1` (racemic) [Tolperisone, 2,4′-dimethyl-3-piperidino-propiophenone], the membrane effect [1] is given as “tissue membrane stabilizing properties”, the “effect on calcium current” value [2] is given as “inhibit calcium current dose-dependently” and the “effect on ventral nerve root reflexes and dorsal nerve root reflex” value [3] is given as “dose-dependently inhibit both ventral nerve root reflexes and the dorsal nerve root reflex”. For the same compound, the “effect on segmental (limb) reflexes” value [4] was “depress segmental (limb) reflexes”, the “most serious adverse effect” value [5] was “anaphylaxis” and the “other frequently reported adverse effects” value [5] was “muscle weakness, muscle pain, headache, dizziness, and gastric complaints”.
For `O=C1CCC(N2C(=O)c3ccccc3C2=O)C(=O)N1` (single isomer, unassigned) [D-enantiomer of thalidomide, thalidomide], the “effect when prescribed for morning sickness during pregnancy” value [6] is given as “safe and effective sedative”.
For `O=C1CCC(N2C(=O)c3ccccc3C2=O)C(=O)N1` (single isomer, unassigned) [L-enantiomer of thalidomide, thalidomide], the “effect when prescribed for morning sickness during pregnancy” value [6] is given as “potent teratogen”.
For `Cc1ccc(C(=O)C(C)CN2CCCCC2)cc1` (single isomer, unassigned; (+)) [(+)-tolperisone], the “pharmacodynamic property of the isomer” value [7] is listed as “more muscle-relaxant properties”.
In the case of `Cc1ccc(C(=O)C(C)CN2CCCCC2)cc1` (single isomer, unassigned; (-)) [(−)-tolperisone], the “pharmacodynamic property of the isomer” value [7] is given as “vasodilatory activity”.
In the case of `CC(C)NCC(O)COc1cccc2ccccc12` (centres unmarked) [propranolol], the “potency relative to the D-enantiomer” value [8] is given as 100 times.
